Source: patent US20170273922A1, “UREA AND BIS-UREA BASED COMPOUNDS AND ANALOGUES THEREOF USEFUL IN THE TREATMENT OF ANDROGEN RECEPTOR MEDIATED DISEASES OR DISORDERS” (THE ROYAL INSTITUTION FOR THE ADVACEMENT OF LEARNING/MCGILL …, priority 2014, published 2017)
Numbering of substitutions follows the chain as printed. “Also recorded” adds a separate entry of the source.

Experiments:
WT full-length AR = molecular target: T1, WT full-length AR (Homo sapiens, UniProt P10275); experiment: WT full-length AR PSA-luc reporter assay (DHT-induced) in transfected cells; details: 24 h; for inhibition of DHT-induced activation of WT full-length AR (PSA-luc): 10 nM DHT; for agonism of full-length AR WT (PSA-luc): absence of DHT, PC3 cells
T1 sequence (P10275 1-920): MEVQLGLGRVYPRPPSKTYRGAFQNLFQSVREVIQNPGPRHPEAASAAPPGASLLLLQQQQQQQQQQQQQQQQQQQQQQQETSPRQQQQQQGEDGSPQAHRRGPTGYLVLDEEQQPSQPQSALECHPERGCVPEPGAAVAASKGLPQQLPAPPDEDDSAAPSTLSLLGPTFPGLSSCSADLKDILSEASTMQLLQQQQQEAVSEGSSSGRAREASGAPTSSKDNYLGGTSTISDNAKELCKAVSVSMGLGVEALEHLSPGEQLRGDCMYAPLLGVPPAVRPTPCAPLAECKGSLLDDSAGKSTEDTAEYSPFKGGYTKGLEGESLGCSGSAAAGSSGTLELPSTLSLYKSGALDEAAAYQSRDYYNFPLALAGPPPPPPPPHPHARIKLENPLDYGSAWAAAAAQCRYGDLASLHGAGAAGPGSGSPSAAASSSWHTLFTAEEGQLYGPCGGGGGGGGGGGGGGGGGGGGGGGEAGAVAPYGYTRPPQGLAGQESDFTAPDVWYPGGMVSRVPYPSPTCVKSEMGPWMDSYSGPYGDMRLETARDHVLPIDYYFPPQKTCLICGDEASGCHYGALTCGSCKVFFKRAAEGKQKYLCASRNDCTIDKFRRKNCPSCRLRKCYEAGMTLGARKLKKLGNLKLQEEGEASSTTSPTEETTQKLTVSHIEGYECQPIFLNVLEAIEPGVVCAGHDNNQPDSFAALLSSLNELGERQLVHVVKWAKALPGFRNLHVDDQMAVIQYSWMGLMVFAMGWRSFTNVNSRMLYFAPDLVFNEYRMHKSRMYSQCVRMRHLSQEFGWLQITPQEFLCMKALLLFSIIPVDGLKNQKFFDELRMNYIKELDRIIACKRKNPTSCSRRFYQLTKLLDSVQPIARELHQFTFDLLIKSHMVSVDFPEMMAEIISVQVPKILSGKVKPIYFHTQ

[1] = test system: endogenous AR-Vs in 22Rv1 cells; experiment: PSA-luc reporter assay in androgen-starved 22Rv1 cells (endogenous LBD-truncated AR variants); details: androgen-starved 3 days, 24 h exposure
Description: NT, LNCaP cells were transiently transfected with pIRES vector, PSA-luc and pRL-TK. […] Cells were then transiently transfected with PSA-Luc and pRL-TK and exposed to DMSO or compounds for 24 h, in triplicate. NT, not transfected with PSA-luc.
The ARs were probed by N-terminal directed AR antibody (N20, Santa Cruz); B) The 22Rv1 cells were androgen-starved (in phenol red-free medium+10% CS-FBS) for 3 days to ensure the full-length AR expressed in 22Rv1 are not activated. The 22Rv1 cells were subsequently co-transfected with PSA-luc and pRL-TK plasmids. […] Cells in phenol red-free medium+10% CS-FBS were exposed to DMSO or compounds for 24 h and harvested for Western blot analysis.
The cells were androgen-starved for 3 days and transfected with PSA-Luc and pRL-TK plasmids. NT, cells were transfected with empty vector. Cells were exposed to vehicle control or compounds for 24 h.

[2] = molecular target: T2, endogenous AR T877A mutant in LNCaP cells (Homo sapiens, UniProt P10275, T878A); experiment: PSA-luc reporter assay in LNCaP cells (endogenous AR T877A mutant); type: cell-based
T2 construct: LNCaP cells, which express endogenous AR T877A mutant; endogenous in cells; host or cells: LNCaP
T2 sequence (P10275 1-920 T878A): T1 sequence (P10275 1-920) with T878A
Description: Experiments were in duplicate and repeated three times. […] LNCaP cells in whole medium were exposed to DMSO vehicle control or compounds for 24 h.

| IC50 ([2]; FIG. 11) | Compound | inhibition of DHT-induced activation of WT full-length AR (PSA-luc) (WT full-length AR) | agonism of full-length AR WT (PSA-luc) (WT full-length AR) | activity against constitutive activation of endogenous AR-Vs in 22Rv1 cells (PSA-luc) [1] | inhibition of DHT-induced activation of endogenous AR in LNCaP cells (PSA-luc) ([2]; 24 h) | effect of increasing DHT from 1 nM to 10 nM on inhibitory activity in LNCaP cells ([2]; PSA-luc, 24 h) | inhibitory activity compared with EPI at 25 μM (FIG. 11) ([2]; compound at 2.5 μM) |
| --- | --- | --- | --- | --- | --- | --- | --- |
| – | O=C(Nc1cccc(C(F)(F)F)c1)Nc1ccc([N+](=O)[O-])c(C(F)(F)F)c1 [Compound 442] | dose-dependently suppressed; also recorded: dose-dependently inhibit | non-agonist | significantly suppressed; also recorded: active | potently inhibit; also recorded: suppressed | not competed out | – |
| – | N#Cc1ccc(NC(=O)Nc2cccc(C(F)(F)F)c2)cc1C(F)(F)F [Compound 467] | dose-dependently suppressed; also recorded: dose-dependently inhibit | non-agonist | significantly suppressed; also recorded: active | potently inhibit; also recorded: suppressed | – | – |
| – | N#Cc1ccc(NC(=O)Nc2cccc(C(F)(F)F)c2)cc1Cl [Compound 492] | dose-dependently suppressed; also recorded: dose-dependently inhibit | non-agonist | – | – | – | – |
| ~1 µM | O=C(N/C=C/c1cccc(C(F)(F)F)c1)Nc1ccncn1 [Compound 562] | dose-dependently inhibit | – | remain active; also recorded: greater inhibitory activity than EPI-001 | suppressed; also recorded: potently inhibited; also recorded: good activity | – | – |
| – | O=C(Nc1ccc(Br)nc1)Nc1cc(C(F)(F)F)cc(C(F)(F)F)c1 [Compound 566] | – | – | active; also recorded: greater inhibitory activity than EPI-001 | – | – | – |
| – | O=C(Nc1cccc(C(F)(F)F)c1)Nc1ccc(NC(=O)c2ccccc2F)c(C(F)(F)F)c1 [Compound 746] | dose-dependently inhibit | – | remain active; also recorded: greater inhibitory activity than EPI-001 | suppressed; also recorded: potently inhibited; also recorded: good activity | – | greater inhibitory activity than EPI at 25 μM |
